From paper PMC6391970, “Design, Synthesis and Characterization of Covalent KDM5 Inhibitors” (Angewandte Chemie (International Ed. in English), 2018)
“Also recorded” adds a separate entry of the source.

How the values were obtained:
PCAF = molecular target: T1, PCAF (Homo sapiens, UniProt Q92831); assay: Covalent binding by MS, PCAF; conditions: PCAF-HAT domain, 37 °C, 1h
T1 construct: either with the PCAF -HAT domain or with NUDT7
Experimental: (§1) Figure S3. Mass Spectra of compounds incubated with enzymes with known reported covalent inhibitors.
(§2) Compounds 4 (red), 7 (orange) and 9 (light blue) incubated at 37 °C with PCAF (A) and NUDT7 (B). No covalent
(§3) after incubation at 37 °C for 1h. Expected modification peaks for each compounds are indicated with purple arrows. […]

NUDT7 = NUDT7 (Homo sapiens, UniProt P0C024); assay: Covalent binding by MS, NUDT7; conditions: 37 °C, 1h
Sequence of NUDT7 (P0C024 whole entry): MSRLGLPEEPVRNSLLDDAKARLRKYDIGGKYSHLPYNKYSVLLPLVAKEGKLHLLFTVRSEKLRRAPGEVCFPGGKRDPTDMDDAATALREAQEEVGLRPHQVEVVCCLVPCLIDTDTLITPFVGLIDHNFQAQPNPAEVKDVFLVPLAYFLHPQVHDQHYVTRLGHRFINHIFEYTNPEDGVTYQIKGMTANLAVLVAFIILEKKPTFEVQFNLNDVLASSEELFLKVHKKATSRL
Experimental: as §1, §2, §3

KDM2A = molecular target: T2, KDM2A (Homo sapiens, UniProt Q9Y2K7); assay: KDM AlphaScreen selectivity panel, KDM2A; format: biochemical; conditions: for IC50: AlphaScreen after 120 min pre-incubation, read-out: KDM IC50 2A; for SI over KDM5B, 2A: KDM2A IC50/KDM5B IC50
T2 sequence (Q9Y2K7 1-1162): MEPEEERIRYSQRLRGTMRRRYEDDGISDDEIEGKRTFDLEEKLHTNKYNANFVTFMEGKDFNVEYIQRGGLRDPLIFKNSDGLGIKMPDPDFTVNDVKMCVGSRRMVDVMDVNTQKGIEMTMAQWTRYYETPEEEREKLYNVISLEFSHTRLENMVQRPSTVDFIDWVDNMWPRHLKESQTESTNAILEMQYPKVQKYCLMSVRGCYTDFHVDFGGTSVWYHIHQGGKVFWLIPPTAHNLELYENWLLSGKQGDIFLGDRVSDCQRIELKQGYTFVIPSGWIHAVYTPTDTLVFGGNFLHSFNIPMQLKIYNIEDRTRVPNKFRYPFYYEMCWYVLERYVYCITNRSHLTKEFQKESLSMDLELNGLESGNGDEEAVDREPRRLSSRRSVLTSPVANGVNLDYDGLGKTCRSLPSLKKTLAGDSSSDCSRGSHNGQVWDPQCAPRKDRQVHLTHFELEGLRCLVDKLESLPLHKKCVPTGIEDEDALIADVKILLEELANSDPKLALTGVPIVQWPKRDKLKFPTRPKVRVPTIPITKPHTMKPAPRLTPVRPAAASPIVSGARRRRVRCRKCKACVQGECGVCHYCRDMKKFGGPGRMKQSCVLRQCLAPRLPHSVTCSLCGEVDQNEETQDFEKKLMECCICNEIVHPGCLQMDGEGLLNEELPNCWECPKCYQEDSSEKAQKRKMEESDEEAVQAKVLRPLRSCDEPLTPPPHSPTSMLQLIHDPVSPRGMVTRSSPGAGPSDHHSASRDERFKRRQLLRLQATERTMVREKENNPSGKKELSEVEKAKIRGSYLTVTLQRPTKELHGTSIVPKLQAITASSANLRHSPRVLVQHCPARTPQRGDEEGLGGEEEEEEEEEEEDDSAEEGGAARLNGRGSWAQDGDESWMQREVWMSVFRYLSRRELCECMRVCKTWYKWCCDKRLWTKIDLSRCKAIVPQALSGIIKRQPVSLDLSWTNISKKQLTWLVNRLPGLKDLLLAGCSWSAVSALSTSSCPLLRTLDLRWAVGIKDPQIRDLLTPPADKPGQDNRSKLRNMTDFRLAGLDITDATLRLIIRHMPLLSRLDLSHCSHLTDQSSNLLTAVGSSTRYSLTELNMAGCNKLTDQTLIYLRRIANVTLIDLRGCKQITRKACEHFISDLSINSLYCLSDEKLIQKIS
Experimental: A panel of JmjC KDMs was tested by AlphaScreen to determine the selectivity of the compounds (Table S2). […]
KDM alpha screen selectivity
Inhibition of histone demethylases was assessed using the histone demethylase AlphaScreen assay (Amplified Luminescence Proximity Homogenous Assay) as previously reported.[4] The basis of this assay for lysine demethylases have been widely described.[5] In brief, the assay was performed in 384-well plate format using white proxiplates (PerkinElmer), and transfer of titrations of compounds (100 nl) was performed using an ECHO 550 acoustic dispenser […]
Tween- 20) containing the appropriate demethylase enzyme (see Supplementary table 1 for final concentrations) was transferred to each well of a 384-well proxiplate with a Multidrop™ Combi Reagent Dispenser, and the enzymes allowed to pre-incubate for 120 minutes with compound (final concentration of DMSO was 1%). After that time, the enzyme reaction was initiated by addition of 5 µl of a substrate mix consisting of Ketoglutarate (2-OG), Ferrous Ammonium Sulphate (FAS), L-Ascorbic Acid (LAA) and biotinylated peptide substrate (see Supporting table X for final assay concentrations) and the reaction incubated for the indicated time at room temperature. Reaction was stopped by the addition of 5 μl of assay buffer containing EDTA (7.5 mM) and NaCl (400 mM). Streptavidin Donor beads (0.08 mg/ml) and Protein-A conjugated acceptor beads (0.08 mg/ml) (AlphaScreen General IgG detection kit was from Perkin Elmer) were pre-incubated for 1 hour with an antibody to the product methyl mark (Supplementary Table 1) and the presence of biotin-H3-product was detected by addition of 5 µl of the pre-incubated AlphaScreen beads (final concentrations of 0.02 mg/ml with respect to acceptor and donor beads). Detection was allowed to proceed for 2 hour at room temperature and the assay plates read in a BMG Labtech Pherastar FS plate reader (excitation, 680 nm; emission, 570 […]
IC50(t) = Ki (1 + K ) . ( η . k .t − 1) (1) […]
Table S4. AlphaScreen assay conditions for the KDM selectivity panel

Caco-2 permeability = format: in vitro ADME; conditions: human, Caco-2, Caco‐2 cells, A to B

T1 sequence (Q92831 503-651 limits assumed, species assumed): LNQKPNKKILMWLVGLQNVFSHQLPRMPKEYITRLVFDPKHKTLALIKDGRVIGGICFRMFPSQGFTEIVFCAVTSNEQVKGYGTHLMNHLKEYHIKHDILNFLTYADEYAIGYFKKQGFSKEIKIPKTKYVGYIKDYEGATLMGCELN

Row | IC50 (KDM2A) | SI over KDM5B, 2A (KDM2A) | Papp A→B (Caco-2 permeability) | SMILES | covalent labelling of PCAF by MS (PCAF) | covalent labelling of NUDT7 by MS (NUDT7)
1 | 4.4 ± 0.1 µM | 451 | < 1.5 ×10⁻⁶ cm/s | CN(CCc1cnn(-c2nccc3c(=O)[nH]cnc23)c1)Cc1cccc(NC(=O)CCl)c1 [Compound 5] | – | –
2 | > 33 µM | – | < 1.5 ×10⁻⁶ cm/s | CN(C)C/C=C/C(=O)Nc1cccc(CN(C)CCc2cnn(-c3nccc4c(=O)[nH]cnc34)c2)c1 [Compound 6] | – | –
3 | 11.3 ± 0.3 µM | 558 | < 1.5 ×10⁻⁶ cm/s | C=CC(=O)Nc1cccc(CN(C)CCc2cnn(-c3nccc4c(=O)[nH]cnc34)c2)c1 [Compound 4] | no labelling was observed; also recorded: No covalent modifications were observed | no labelling was observed; also recorded: No covalent modifications were observed

Second part, the compound before the results:

Row | SMILES | IC50 (KDM2A) | SI over KDM5B, 2A (KDM2A) | Papp A→B (Caco-2 permeability) | covalent labelling of PCAF by MS (PCAF) | covalent labelling of NUDT7 by MS (NUDT7)
4 | C=CC(=O)NCCOc1ccc(-c2[nH]c3c(C#N)cnn3c(=O)c2C(C)C)cc1 [Compound 9] | > 100 µM | > 1550 | < 0.76 ×10⁻⁶ cm/s | no labelling was observed; also recorded: No covalent modifications were observed | no labelling was observed; also recorded: No covalent modifications were observed
5 | C=CC(=O)N1CCC(n2cc(-c3[nH]c4c(C#N)cnn4c(=O)c3C(C)C)cn2)CC1 [Compound 10] | > 100 µM | > 5843 | < 0.76 ×10⁻⁶ cm/s | – | –
6 | CC(C)c1c(-c2cnn(C3CCN(C(=O)CCl)CC3)c2)[nH]c2c(C#N)cnn2c1=O [Compound 11] | > 60 µM | > 6671 | < 1.4 ×10⁻⁶ cm/s | – | –
7 | CC(C)c1c(-c2cnn(CCNC(=O)CCl)c2)[nH]c2c(C#N)cnn2c1=O [Compound 7] | > 100 µM | > 14113 | < 0.76 ×10⁻⁶ cm/s | no labelling was observed; also recorded: No covalent modifications were observed | no labelling was observed; also recorded: No covalent modifications were observed
